Measured values: ChEMBL document CHEMBL6109125, “A New Protractor Potentiates Glucagon-Like Peptide 1 with Slow-Release Depot and Long-Term Action” (J Med Chem, 2025)
Calls of active or inactive are those of the source. The rule behind the calls is not given here.

Assays:
[1] = AUClast in Sprague-Dawley rat at 1 mg/kg, sc measured up to 48 hrs by LC-MS/MS analysis; type: ADME, organism-based; settings: in vivo
[2] = Apparent volume of distribution in Sprague-Dawley rat at 1 mg/kg, iv measured up to 48 hrs by LC-MS/MS analysis; type: ADME, organism-based; settings: in vivo, read-out: Vz
[3] = biological target: T1, Glucagon-like peptide 1 receptor (Homo sapiens, UniProt P43220); assay: Agonist activity at GLP-1R (unknown origin) expressed in HEK293 cells co-expressing CRE-Luc assessed as increase in intracellular cAMP accumulation by luciferase based assay; type: functional, cell-based; settings: read-out: EC50
T1 sequence (P43220 whole entry): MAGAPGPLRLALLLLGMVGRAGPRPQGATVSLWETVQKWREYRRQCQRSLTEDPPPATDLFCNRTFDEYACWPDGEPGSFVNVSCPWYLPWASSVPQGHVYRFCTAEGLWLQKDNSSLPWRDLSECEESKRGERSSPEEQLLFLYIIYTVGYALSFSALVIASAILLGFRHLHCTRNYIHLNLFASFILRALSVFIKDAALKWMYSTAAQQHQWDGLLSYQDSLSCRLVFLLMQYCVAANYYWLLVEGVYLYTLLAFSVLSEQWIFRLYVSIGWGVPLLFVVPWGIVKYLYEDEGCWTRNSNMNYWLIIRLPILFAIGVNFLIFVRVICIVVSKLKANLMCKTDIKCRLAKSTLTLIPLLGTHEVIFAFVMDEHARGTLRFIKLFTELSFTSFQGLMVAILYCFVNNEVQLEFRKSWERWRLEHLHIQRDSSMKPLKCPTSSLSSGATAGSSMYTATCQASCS

[4] = AUClast in BALB/c mouse at 0.5 mg/kg, iv measured up to 48 hrs by LC-MS/MS analysis; type: ADME, organism-based; settings: in vivo
Dipeptidyl peptidase 4 [5] = biological target: T2, Dipeptidyl peptidase 4 (Rattus norvegicus, UniProt P14740); assay: Stability in Sprague-Dawley rat plasma assessed as DPP4-mediated drug degradation by measuring Lys(CBB)Gly metabolite formation measured after 96 hrs by mass spectrometry; type: ADME, cell-free
T2 sequence (P14740 whole entry): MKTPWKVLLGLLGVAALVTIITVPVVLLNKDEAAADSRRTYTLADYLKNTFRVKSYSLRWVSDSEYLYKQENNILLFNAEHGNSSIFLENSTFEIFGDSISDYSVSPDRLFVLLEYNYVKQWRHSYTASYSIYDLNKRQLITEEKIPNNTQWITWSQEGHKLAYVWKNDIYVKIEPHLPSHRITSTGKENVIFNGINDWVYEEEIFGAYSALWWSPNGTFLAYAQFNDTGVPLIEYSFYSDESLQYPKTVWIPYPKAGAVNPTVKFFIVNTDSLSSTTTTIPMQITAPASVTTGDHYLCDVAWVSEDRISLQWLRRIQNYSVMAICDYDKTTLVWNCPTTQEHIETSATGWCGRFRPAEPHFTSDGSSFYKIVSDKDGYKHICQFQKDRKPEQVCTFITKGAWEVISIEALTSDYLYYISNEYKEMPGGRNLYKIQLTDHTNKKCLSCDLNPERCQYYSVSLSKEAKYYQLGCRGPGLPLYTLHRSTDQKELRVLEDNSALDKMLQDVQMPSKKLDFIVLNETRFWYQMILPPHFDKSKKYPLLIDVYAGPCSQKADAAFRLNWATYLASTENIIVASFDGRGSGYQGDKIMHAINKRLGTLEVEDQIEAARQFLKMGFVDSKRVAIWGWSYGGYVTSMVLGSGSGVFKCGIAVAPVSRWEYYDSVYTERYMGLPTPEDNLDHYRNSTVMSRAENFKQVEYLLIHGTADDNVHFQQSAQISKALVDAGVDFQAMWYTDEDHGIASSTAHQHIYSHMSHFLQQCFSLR

[6] = Stability in Sprague-Dawley rat plasma assessed as compound remaining measured after 96 hrs by RP-HPLC analysis; type: ADME, cell-free; settings: read-out: Stability
[7] = Stability in Sprague-Dawley rat plasma assessed as drug degradation by measuring half life measured after 96 hrs by RP-HPLC analysis; type: ADME, cell-free
Dipeptidyl peptidase 4 [8] = biological target: T2, Dipeptidyl peptidase 4; assay: Stability in Sprague-Dawley rat plasma assessed as DPP4-mediated drug degradation by measuring Lys(CBB) metabolite formation measured after 96 hrs by mass spectrometry; type: ADME, cell-free
Mus musculus [9] = assay: Anti-hyperglycemic activity in type-2 diabetes db/db mouse assessed as blood glucose level at 3 to 600 nmol/kg, sc measured up to 48 hrs; type: functional; settings: dose 3-600 nmol/kg
[10] = MRT in BALB/c mouse at 0.5 mg/kg, sc measured up to 48 hrs by LC-MS/MS analysis; type: ADME, organism-based; settings: in vivo
[11] = Half life in Sprague-Dawley rat at 1 mg/kg, sc measured up to 48 hrs by LC-MS/MS analysis; type: ADME, organism-based; settings: in vivo
[12] = MRT in Sprague-Dawley rat at 1 mg/kg, sc measured up to 48 hrs by LC-MS/MS analysis; type: ADME, organism-based; settings: in vivo
[13] = biological target: T1, Glucagon-like peptide 1 receptor; assay: Agonist activity at GLP-1R (unknown origin) expressed in HEK293 cells co-expressing CRE-Luc assessed as increase in intracellular cAMP accumulation in presence of 10% FBS by luciferase based assay; type: functional, cell-based; settings: read-out: EC50
[14] = Apparent volume of distribution in BALB/c mouse at 0.5 mg/kg, iv measured up to 48 hrs by LC-MS/MS analysis; type: ADME, organism-based; settings: in vivo, read-out: Vz
[15] = Clearance in Sprague-Dawley rat at 1 mg/kg, iv measured up to 48 hrs by LC-MS/MS analysis; type: ADME, organism-based; settings: in vivo
[16] = Clearance in BALB/c mouse at 0.5 mg/kg, iv measured up to 48 hrs by LC-MS/MS analysis; type: ADME, organism-based; settings: in vivo
Mus musculus [17] = assay: Anti-hyperglycemic activity in 16 hr-fasted type-2 diabetes db/db mouse at 100 nmol/kg, sc pretreated for 0.5 hrs followed by glucose administration measured for 2 hrs by OGTT method; type: functional, organism-based; settings: time 2.5 hrs
[18] = biological target: T1, Glucagon-like peptide 1 receptor; assay: Agonist activity at GLP-1R (unknown origin) expressed in HEK293 cells co-expressing CRE-Luc assessed as increase in intracellular cAMP accumulation in presence of 2% HSA by luciferase based assay; type: functional, cell-based; settings: read-out: EC50
Mus musculus [19] = assay: Anti-hyperglycemic activity in well-fed type-2 diabetes db/db mouse assessed as blood glucose level at 100 nmol/kg, sc administered on every 48 hrs; type: functional
[20] = Tmax in Sprague-Dawley rat at 1 mg/kg, sc measured up to 48 hrs by LC-MS/MS analysis; type: ADME, organism-based; settings: in vivo
[21] = Tmax in BALB/c mouse at 0.5 mg/kg, sc measured up to 48 hrs by LC-MS/MS analysis; type: ADME, organism-based; settings: in vivo
Mus musculus [22] = assay: Anti-hyperglycemic activity in type-2 diabetes db/db mouse assessed as reduction in food intake at 100 nmol/kg, sc measured for 48 hrs; type: functional, organism-based
[23] = AUClast in BALB/c mouse at 0.5 mg/kg, sc measured up to 48 hrs by LC-MS/MS analysis; type: ADME, organism-based; settings: in vivo
Albumin = Albumin (Homo sapiens, UniProt P02768); assay: Binding affinity to human serum albumin immobilized on AR2G biosensor assessed as dissociation constant incubated for 3 mins by BLI assay; type: ADME
Chain of Albumin (P02768 whole entry): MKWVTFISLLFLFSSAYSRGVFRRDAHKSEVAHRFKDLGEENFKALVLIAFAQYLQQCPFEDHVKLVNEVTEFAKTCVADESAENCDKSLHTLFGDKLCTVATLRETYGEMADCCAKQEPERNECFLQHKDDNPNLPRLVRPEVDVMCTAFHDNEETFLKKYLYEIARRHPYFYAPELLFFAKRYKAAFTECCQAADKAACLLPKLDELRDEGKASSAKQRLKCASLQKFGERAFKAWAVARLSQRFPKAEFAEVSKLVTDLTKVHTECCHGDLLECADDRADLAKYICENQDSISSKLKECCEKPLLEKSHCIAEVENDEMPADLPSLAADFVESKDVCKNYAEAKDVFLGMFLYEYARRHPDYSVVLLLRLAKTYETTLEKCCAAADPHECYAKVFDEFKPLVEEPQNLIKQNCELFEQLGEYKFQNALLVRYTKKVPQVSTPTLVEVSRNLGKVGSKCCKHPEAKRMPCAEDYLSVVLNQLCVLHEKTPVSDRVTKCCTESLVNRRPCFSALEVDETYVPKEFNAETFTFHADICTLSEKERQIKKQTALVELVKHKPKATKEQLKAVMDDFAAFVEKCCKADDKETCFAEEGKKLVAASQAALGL

[24] = Binding affinity to collagen type I (unknown origin) immobilized on AR2G biosensor assessed as dissociation constant incubated for 3 mins by BLI assay; design: species or system Homo sapiens
[25] = Selectivity ratio of EC50 for agonist activity at GLP-1R (unknown origin) expressed in HEK293 cells co-expressing CRE-Luc assessed as increase in intracellular cAMP accumulation in presence of 2% HSA to EC50 for agonist activity at GLP-1R (unknown origin) expressed in HEK293 cells co-expressing CRE-Luc assessed as increase in intracellular cAMP accumulation; type: cell-based
[26] = AUClast in Sprague-Dawley rat at 1 mg/kg, iv measured up to 48 hrs by LC-MS/MS analysis; type: ADME, organism-based; settings: in vivo
[27] = Half life in BALB/c mouse at 0.5 mg/kg, sc measured up to 48 hrs by LC-MS/MS analysis; type: ADME, organism-based; settings: in vivo
Mus musculus [28] = assay: Anti-hyperglycemic activity in 16 hr-fasted type-2 diabetes db/db mouse assessed as homeostasis of blood glucose level at 100 nmol/kg, sc pretreated for 0.5 hrs followed by glucose administration measured for 2 hrs; type: functional, organism-based; settings: time 2.5 hrs
Mus musculus [29] = assay: Anti-hyperglycemic activity in type-2 diabetes db/db mouse assessed as regulation of blood glucose level administered subcutaneously measured up to 96 hrs; type: functional, organism-based; settings: dose 3-600 nmol/kg, route sc
Mus musculus [30] = assay: Anti-hyperglycemic activity in type-2 diabetes db/db mouse assessed as regulation of blood glucose level at 3 to 600 nmol/kg, sc measured up to 96 hrs; type: functional, organism-based

AUC [1]: 28.81 h/µg/mL
Vd [2]: 0.15 L/kg
EC50 [3]: 0.37 pM
AUC [4]: 111.886 h/µg/mL
Drug metabolism (Dipeptidyl peptidase 4 [5]): metabolite_detected
remaining at 96 h [6]: 40%
half-life [7]: 24 h
Drug metabolism (Dipeptidyl peptidase 4 [8]): metabolite_detected
MRT [10]: 18.1 h
half-life [11]: 32 h
MRT [12]: 18 h
EC50 [13]: 0.21 pM
Vd [14]: 0.056 L/kg
clearance [15]: 0.25 mL/min/kg
clearance [16]: 0.0667 mL/min/kg
EC50 [18]: 1.99 pM
Tmax [20]: 12 h
Tmax [21]: 12 h
AUC [23]: 123.884 h/µg/mL
Kd (Albumin): 520000 pM
Kd [24]: 390000 pM
AUC [26]: 67.28 h/µg/mL
half-life [27]: 32 h
EC50 (Mus musculus [30]): 30 nmol/kg
SMILES: CCOc1ccc(Nc2ccc(/C(=C3C=C/C(=[N+](\CC)Cc4cccc(S(=O)(=O)[O-])c4)C=C\3C)c3ccc(N(CC)Cc4cccc(S(=O)(=O)NCCCCCC(=O)NCCOCCOCCOCCOCCOCCOCCOCCOCCC(=O)NCCCC[C@H](NC(=O)[C@@H](NC(=O)[C@H](CC(C)C)NC(=O)[C@H](Cc5c[nH]c6ccccc56)NC(=O)[C@H](C)NC(=O)[C@@H](NC(=O)[C@H](Cc5ccccc5)NC(=O)[C@H](CCC(=O)O)NC(=O)[C@H](CCCNC(=N)N)NC(=O)[C@H](C)NC(=O)[C@H](C)NC(=O)[C@H](CCC(N)=O)NC(=O)CNC(=O)[C@H](CCC(=O)O)NC(=O)[C@H](CC(C)C)NC(=O)[C@H](Cc5ccc(O)cc5)NC(=O)[C@H](CO)NC(=O)[C@H](CO)NC(=O)[C@@H](NC(=O)[C@H](CC(=O)O)NC(=O)[C@H](CO)NC(=O)[C@@H](NC(=O)[C@H](Cc5ccccc5)NC(=O)[C@@H](NC(=O)CNC(=O)[C@H](CCC(=O)O)NC(=O)CNC(=O)[C@@H](N)Cc5c[nH]cn5)[C@@H](C)O)[C@@H](C)O)C(C)C)[C@@H](C)CC)C(C)C)C(=O)NCC(=O)N[C@@H](CCCNC(=N)N)C(N)=O)c4)cc3C)cc2)cc1
Activity (Mus musculus [9]): <10 mM
Activity (Mus musculus [17]): Active
Activity (Mus musculus [19]): <10 mM
Activity (Mus musculus [22]): Active
Ratio EC50 [25]: 5.38
Activity (Mus musculus [28]): Active
Activity (Mus musculus [29]): Dose-dependent-effect
